According to ChEMBL document CHEMBL1153018, “Synthesis of pochoxime prodrugs as potent HSP90 inhibitors” (Bioorg Med Chem Lett, 2009):
Activity calls are given as the source filed them. The rule behind the calls is not given here.

How the values were obtained:
[1] = Growth inhibition of human MDA231 cells assessed as ATP level after 4 days; assay type: functional; conditions: MDA-MB-231, 96 h
HCC827 [2] = assay: Induction of mutant Cdk4 degradation in human tarceva and iressa-resistant HCC827 cells at 20 to 500 nM by Western blotting; assay type: functional, cell-based
MV4-11 = assay: Growth inhibition of human MV4-11 cells assessed as ATP level after 4 days; assay type: functional; conditions: MV4-11, 96 h
Mus musculus [3] = assay: Toxicity in ICR-SCID mouse heart assessed as cholesterol level at 150 mg/kg administered 3 times per week for 4 weeks measured after 24 hrs of last dose relative to untreated control; assay type: organism-based; design: dose 150 mg/kg; conditions: in vivo
HCC827 [4] = assay: Induction of mutant p-Akt degradation in human tarceva and iressa-resistant HCC827 cells at 20 to 500 nM by Western blotting; assay type: functional, cell-based
HCC827 [5] = assay: Induction of mutant Cyclin D degradation in human tarceva and iressa-resistant HCC827 cells at 20 to 500 nM by Western blotting; assay type: functional, cell-based
NCI-H1975 [6] = assay: Induction of mutant p-Akt degradation in human tarceva and iressa-resistant NCI-H1975 cells at 20 to 500 nM by Western blotting; assay type: functional, cell-based
HCT-116 = assay: Growth inhibition of human HCT116 cells assessed as ATP level after 4 days; assay type: functional; conditions: HCT-116, 96 h
BT-474 [7] = assay: Induction of AKT degradation in human BT474 cells xenografted in ICR-SCID mouse at 100 mg/kg, ip administered after 3 weeks tumor implantation after 6 to 48 hrs by Western blotting; assay type: functional, organism-based; design: dose 100 mg/kg
[8] = Drug level in tumor of human BT474 cells xenografted in ICR-SCID mouse at 150 mg/kg, ip administered after 3 weeks tumor implantation measured after 24 hrs; assay type: ADME, organism-based, Neoplasm, BT-474; design: dose 150 mg/kg, route intraperitoneal; conditions: tumor (human BT474 xenograft), read-out: Drug uptake
NCI-H1975 [9] = assay: Growth inhibition of human tarceva and iressa-resistant NCI-H1975 cells assessed as ATP level after 4 days; assay type: functional; conditions: NCI-H1975, 96 h
[10] = Oral bioavailability in mouse; assay type: ADME, organism-based; conditions: in vivo
[11] = Drug level in tumor of human BT474 cells xenografted in ICR-SCID mouse at 150 mg/kg, ip administered after 3 weeks tumor implantation measured after 6 hrs; assay type: ADME, organism-based, Neoplasm, BT-474; design: dose 150 mg/kg, route intraperitoneal; conditions: tumor (human BT474 xenograft), read-out: Drug uptake
BT-474 [12] = assay: Induction of Cdk4 degradation in human BT474 cells xenografted in ICR-SCID mouse at 100 mg/kg, ip administered after 3 weeks tumor implantation after 6 to 48 hrs by Western blotting; assay type: functional, organism-based; design: dose 100 mg/kg
HCC827 [13] = assay: Induction of mutant EGFR degradation in human tarceva and iressa-resistant HCC827 cells at 20 to 500 nM by Western blotting; assay type: functional, cell-based
[14] = Growth inhibition of human tarceva and iressa-resistant HCC827 cells assessed as ATP level after 4 days; assay type: functional; conditions: HCC827, 96 h
[15] = Drug level in tumor of human BT474 cells xenografted in ICR-SCID mouse at 150 mg/kg, ip administered after 3 weeks tumor implantation measured after 48 hrs; assay type: ADME, organism-based, Neoplasm, BT-474; design: dose 150 mg/kg, route intraperitoneal; conditions: tumor (human BT474 xenograft), read-out: Drug uptake
BT-474 [16] = assay: Growth inhibition of human BT474 cells assessed as ATP level after 4 days; assay type: functional; conditions: BT-474, 96 h
Mus musculus [17] = assay: Toxicity in ICR-SCID mouse kidney assessed as BUN level at 150 mg/kg administered 3 times per week for 4 weeks measured after 24 hrs of last dose relative to untreated control; assay type: organism-based; design: dose 150 mg/kg; conditions: in vivo
NCI-H1975 [18] = assay: Induction of mutant Cyclin D degradation in human tarceva and iressa-resistant NCI-H1975 cells at 20 to 500 nM by Western blotting; assay type: functional, cell-based
[19] = Drug level in tumor of human BT474 cells xenografted in ICR-SCID mouse at 200 mg/kg, ip administered after 3 weeks tumor implantation measured after 48 hrs; assay type: ADME, organism-based, Neoplasm, BT-474; design: dose 200 mg/kg, route intraperitoneal; conditions: tumor (human BT474 xenograft), read-out: Drug uptake
Mus musculus [20] = assay: Hepatotoxicity in ICR-SCID mouse liver assessed as bilirubin level at 100 mg/kg administered 3 times per week for 4 weeks measured after 24 hrs of last dose relative to untreated control; assay type: toxicity, organism-based; design: dose 100 mg/kg; conditions: in vivo
[21] = Drug level in tumor of human BT474 cells xenografted in ICR-SCID mouse at 100 mg/kg, ip administered after 3 weeks tumor implantation measured after 6 hrs; assay type: ADME, organism-based, Neoplasm, BT-474; design: dose 100 mg/kg, route intraperitoneal; conditions: tumor (human BT474 xenograft), read-out: Drug uptake
[22] = Drug level in tumor of human BT474 cells xenografted in ICR-SCID mouse at 200 mg/kg, ip administered after 3 weeks tumor implantation measured after 12 hrs; assay type: ADME, organism-based, Neoplasm, BT-474; design: dose 200 mg/kg, route intraperitoneal; conditions: tumor (human BT474 xenograft), read-out: Drug uptake
[23] = Drug level in tumor of human BT474 cells xenografted in ICR-SCID mouse at 150 mg/kg, ip administered after 3 weeks tumor implantation measured after 12 hrs; assay type: ADME, organism-based, Neoplasm, BT-474; design: dose 150 mg/kg, route intraperitoneal; conditions: tumor (human BT474 xenograft), read-out: Drug uptake
HCC827 [24] = assay: Induction of mutant c-Raf degradation in human tarceva and iressa-resistant HCC827 cells at 20 to 500 nM by Western blotting; assay type: functional, cell-based

With `O=C1OCC/C=C/CC/C=C/C(=N/OCC(=O)N2CCCCC2)Cc2c(Cl)c(O)cc(O)c21` [POCHOXIME A] the GI50 [1] was 7 nM, the Activity (HCC827 [2]) was “Active” and the GI50 (MV4-11) was 3 nM. For the same compound, the Activity (Mus musculus [3]) was 119 mg/dL, the Activity (HCC827 [4]) was “Active” and the Activity (HCC827 [5]) was “Active”. The Activity (NCI-H1975 [6]) was “Active”, the GI50 (HCT-116) was 9 nM and the Activity (BT-474 [7]) was “Active”. It also gave a concentration at 24 h [8] of 7930 ng/g, a GI50 (NCI-H1975 [9]) of 25 nM and a bioavailability [10] of 3.4%. The concentration at 6 h [11] was 6180 ng/g, the Activity (BT-474 [12]) was “Active” and the Activity (HCC827 [13]) was “Active”. For the same compound, the GI50 [14] was 31 nM, the concentration at 48 h [15] was 4580 ng/g and the GI50 (BT-474 [16]) was 7 nM. For the same compound, the Activity (Mus musculus [17]) was 19 mg/dL, the Activity (NCI-H1975 [18]) was “Active” and the concentration at 48 h [19] was 4020 ng/g. It also gave an Activity (Mus musculus [20]) of 0.2 mg/dL, a concentration at 6 h [21] of 5490 ng/g and a concentration at 12 h [22] of 8920 ng/g. The concentration at 12 h [23] was 6500 ng/g and the Activity (HCC827 [24]) was “Active”.
